According to patent US7737161B2, “Condensed furan compounds” (Mitsubishi Tanabe Pharma Corporation, priority 2003, dated 2010):

Target: T1, human FXa (Homo sapiens, UniProt P00742)
T1 construct: purchased Enzyme Research Laboratories, Inc
Assay: Inhibitory effect on activated blood coagulation factor X (chromogenic substrate S-2222)
Type: biochemical
Details: human FXa 0.05 U/ml, S-2222 0.5 mM, 37° C., pH 8.4
Procedure: A substrate solution was prepared by dissolving chromogenic substrate S-2222 at the concentration of 0.625 mM (final concentration 0.5 mM) in 100 mM Tris buffer (pH 8.4) containing 200 mM sodium chloride and 0.1% bovine serum albumin, and a test compound solution was prepared by dissolving a test compound in a buffer containing 10% dimethyl sulfoxide. The test compound solution (25 μl) was added to the substrate solution (200 μl). In the control group, 25 μl of the buffer containing 10% dimethyl sulfoxide was used instead of the test compound solution.
After pre-warming at 37° C. for 3 minutes, 25 μl of human FXa (Enzyme Research Laboratories, Inc.) dissolved at 0.5 U/ml in a buffer was added to the reaction mixture (final concentration of FXa: 0.05 U/ml) to initiate the reaction. During a 5-minute reaction at 37° C., the absorbance at 405 nm was monitored continuously on a 96 well microplate reader (Spectra MAX250, Molecular Devices) and the increase of absorbance was used as an index of FXa activity. In order to evaluate FXa inhibitory activity of a test compound, the 50% inhibitory concentration of the test compound for FXa activity compared to the control group (IC50 value) was calculated using analytic soft (GraphPad Prism, GraphPad Software, Inc.).

T1 sequence (P00742 235-488 limits assumed): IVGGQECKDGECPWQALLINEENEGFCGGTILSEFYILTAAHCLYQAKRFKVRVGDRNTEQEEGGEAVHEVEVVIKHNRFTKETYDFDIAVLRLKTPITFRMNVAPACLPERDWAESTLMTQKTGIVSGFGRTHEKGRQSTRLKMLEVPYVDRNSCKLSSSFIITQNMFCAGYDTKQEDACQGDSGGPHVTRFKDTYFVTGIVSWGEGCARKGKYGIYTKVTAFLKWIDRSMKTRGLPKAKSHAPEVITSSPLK
T1 sequence (P00742 41-179 partner limits assumed): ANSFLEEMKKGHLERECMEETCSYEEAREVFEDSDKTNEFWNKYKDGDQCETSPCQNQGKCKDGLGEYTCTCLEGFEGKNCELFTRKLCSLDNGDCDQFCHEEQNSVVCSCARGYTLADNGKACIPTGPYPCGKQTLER

Work on `COc1ccc2oc(C(=O)Nc3ccc(Cl)cn3)c(NC(=O)[C@H]3CC[C@H](N(C)C)CC3)c2n1` [Example 36] yielded an IC50 of 10.8 nM.
